# Data reported in US20220279826A1, “OFF-FLAVOR SUPPRESSING AGENT” (AJINOMOTO CO., INC., priority 2019, published 2022).
# Assays:
# [1] = Sensory evaluation of off-taste suppressing effect in 0.8 wt % potassium chloride aqueous solution (Experimental Examples 1 and 2)
# Method: Each compound shown in the following Tables 1 to 13 was added to a 0.8 wt % potassium chloride aqueous solution at the concentration (addition concentration) shown in the following Tables 1 to 13 to prepare each evaluation sample.
# (§1) Based on the following evaluation criteria, a panel of two experts determined by consensus the intensity of off-tastes (bitter taste, metallic taste, harsh taste, astringent taste) derived from potassium chloride in each evaluation sample, by reference to each potassium chloride aqueous solution adjusted to 0.8 wt %, 0.75 wt %, 0.7 wt %, or 0.65 wt %.
# −: intensity of the same level as potassium chloride aqueous solution with potassium chloride concentration of not less than 0.8 wt %
# +: intensity of the same level as potassium chloride aqueous solution with potassium chloride concentration of not less than 0.75 wt % and less than 0.8 wt %
# ++: intensity of the same level as potassium chloride aqueous solution with potassium chloride concentration of not less than 0.7 wt % and less than 0.75 wt %
# +++: intensity of the same level as potassium chloride aqueous solution with potassium chloride concentration of not less than 0.65 wt % and less than 0.7 wt %
# Each compound shown in the following Table 14 was added to a 0.8 wt % potassium chloride aqueous solution at the concentration (addition concentration) shown in the following Table 14 to prepare each evaluation sample.
# [2] = Sensory evaluation in Japanese noodle soup base solution with potassium chloride (0.2 g) (Experimental Example 5); details: for off-taste suppressing effect: Japanese noodle soup base solution, potassium chloride 0.2 g; for intensity of off-tastes (bitter taste, metallic taste, harsh taste, astringent taste) derived from potassium chloride: base solution of Table 19
# Method: Potassium chloride (0.2 g) was added to a commercially available Japanese noodle soup base (manufactured by Yamaki Co., Ltd.) (11.1 g), and dissolved by adding hot water (88.7 g) to prepare a base solution.
# Each compound shown in the following Table 19 was added to the base solution prepared above so as to achieve the concentration (addition concentration) shown in the following Table 19 to prepare each evaluation sample.
# as §1, with “0.2” for “0.8”, “0.15” for “0.75”, “%” for “%, 0.7 wt %,”, “0.1” for “0.65”
# [3] = Sensory evaluation in ramen noodle soup solution with potassium chloride (Experimental Example 3); details: for off-taste suppressing effect: Ramen noodle soup solution with 0.8 wt % potassium chloride, addition concentration 10 ppb (1.25 weight ppm with respect to potassium chloride); for intensity of off-tastes (bitter taste, metallic taste, harsh taste, astringent taste) derived from potassium chloride: base solutions of Tables 15 to 17 (ramen noodle soup, chicken broth, potage)
# Method: (§2) As shown in the following (1) to (3) below, 0.8 wt % of potassium chloride was added to a food base powder corresponding to 0.5 wt % of sodium chloride to prepare each base solution having an off-taste derived from potassium chloride.
# Potassium chloride (0.8 g) was added to a soup powder (1.1 g) of a commercially available instant ramen noodle (manufactured by SANYO FOODS Co., Ltd., trade name “Sapporo Ichiban Shouyuaji”), hot water (98.1 g) was added to dissolve the mixture to prepare a base solution (ramen noodle soup solution).
# (§3) Each compound shown in the following Tables 15 to 17 was added to each base solution (ramen noodle soup solution, chicken broth solution, potage solution) so as to achieve the concentration (addition concentration) shown in the following Tables 15 to 17 to prepare each evaluation sample.
# (§4) By a method similar to that in Experimental Example 1, a panel of two experts determined the intensity of off-tastes (bitter taste, metallic taste, harsh taste, astringent taste) derived from potassium chloride in each evaluation sample.
# [4] = Sensory evaluation in chicken broth solution with potassium chloride (Experimental Example 3); details: chicken broth solution with 0.8 wt % potassium chloride; addition concentration 10 ppb (1.25 weight ppm with respect to potassium chloride)
# Method: as §2
# Potassium chloride (0.8 g) was added to a commercially available powdered chicken broth mix (manufactured by Ajinomoto Co., Inc., trade name “Marutorigara Soup”) (1.0 g), hot water (98.2 g) was added to dissolve the mixture to prepare a base solution (chicken broth soup solution).
# as §3, §4
# [5] = Sensory evaluation in potage solution with potassium chloride (Experimental Example 3); details: Potage solution with 0.8 wt % potassium chloride; addition concentration 10 ppb (1.25 weight ppm with respect to potassium chloride)
# Method: as §2
# Potassium chloride (0.8 g) was added to a commercially available powdered instant potage (manufactured by Ajinomoto Co., Inc., trade name “Knorr (registered trade mark) Cup Soup Potage”) (7.1 g), hot water (92.1 g) was added to dissolve the mixture to prepare a base solution (potage solution).
# as §3, §4
# [6] = 0.8 wt % potassium chloride aqueous solution, addition concentration 1 weight ppb (0.125 weight ppm with respect to potassium chloride)
# [7] = 0.8 wt % potassium chloride aqueous solution, addition concentration 5 weight ppb (0.625 weight ppm with respect to potassium chloride)
# [8] = 0.8 wt % potassium chloride aqueous solution, addition concentration 10 weight ppb (1.25 weight ppm with respect to potassium chloride)
# [9] = potassium chloride aqueous solutions, Tables 1 to 14
# [10] = 0.8 wt % potassium chloride aqueous solution, addition concentration 50 weight ppb (6.25 weight ppm with respect to potassium chloride)
# [11] = 0.8 wt % potassium chloride aqueous solution, addition concentration 100 weight ppb (12.5 weight ppm with respect to potassium chloride)
# [12] = 0.8 wt % potassium chloride aqueous solution, addition concentration 500 weight ppb (62.5 weight ppm with respect to potassium chloride)
# [13] = 0.8 wt % potassium chloride aqueous solution, addition concentration 1000 weight ppb (125 weight ppm with respect to potassium chloride)
# [14] = in words, potassium chloride aqueous solutions, Tables 1 to 14
Structure (SMILES),"off-taste suppressing effect [1, 6]","off-taste suppressing effect [1, 7]","off-taste suppressing effect [1, 8]","intensity of off-tastes (bitter taste, metallic taste, harsh taste, astringent taste) derived from potassium chloride [1, 9]",off-taste suppressing effect ([2]; addition concentration 5 weight ppb (2.5 weight ppm with respect to potassium chloride)),"intensity of off-tastes (bitter taste, metallic taste, harsh taste, astringent taste) derived from potassium chloride [2]","off-taste suppressing effect [1, 10]","off-taste suppressing effect [1, 11]","off-taste suppressing effect [1, 12]","off-taste suppressing effect [1, 13]",off-taste suppressing effect [3],"intensity of off-tastes (bitter taste, metallic taste, harsh taste, astringent taste) derived from potassium chloride [3]",off-taste suppressing effect [4],off-taste suppressing effect [5],off-taste suppressing effect ([2]; addition concentration 100 weight ppb (50 weight ppm with respect to potassium chloride)),"off-taste suppressing effect [1, 14]"
"CC(=O)c1cc(C)oc1C [3-acetyl-2,5-dimethylfuran]",+ (intensity of the same level as potassium chloride aqueous solution with potassium chloride concentration of not less than 0.75 wt % and less than 0.8 wt %),++ (intensity of the same level as potassium chloride aqueous solution with potassium chloride concentration of not less than 0.7 wt % and less than 0.75 wt %),+ (intensity of the same level as potassium chloride aqueous solution with potassium chloride concentration of not less than 0.75 wt % and less than 0.8 wt %),decreased,+++ (intensity of the same level as potassium chloride aqueous solution with potassium chloride concentration of less than 0.1 wt %),decreased,–,–,–,–,–,–,–,–,–,–
"CC1=C(O)C(=O)OC1C (stereo not shown) [4,5-dimethyl-3-hydroxy-2(5H)-furanone]",+ (intensity of the same level as potassium chloride aqueous solution with potassium chloride concentration of not less than 0.75 wt % and less than 0.8 wt %),++ (intensity of the same level as potassium chloride aqueous solution with potassium chloride concentration of not less than 0.7 wt % and less than 0.75 wt %),++ (intensity of the same level as potassium chloride aqueous solution with potassium chloride concentration of not less than 0.7 wt % and less than 0.75 wt %),decreased,–,–,+ (intensity of the same level as potassium chloride aqueous solution with potassium chloride concentration of not less than 0.75 wt % and less than 0.8 wt %),+ (intensity of the same level as potassium chloride aqueous solution with potassium chloride concentration of not less than 0.75 wt % and less than 0.8 wt %),+ (intensity of the same level as potassium chloride aqueous solution with potassium chloride concentration of not less than 0.75 wt % and less than 0.8 wt %),+ (intensity of the same level as potassium chloride aqueous solution with potassium chloride concentration of not less than 0.75 wt % and less than 0.8 wt %),++ (intensity of the same level as potassium chloride aqueous solution with potassium chloride concentration of not less than 0.7 wt % and less than 0.75 wt %),decreased,++ (intensity of the same level as potassium chloride aqueous solution with potassium chloride concentration of not less than 0.7 wt % and less than 0.75 wt %),++ (intensity of the same level as potassium chloride aqueous solution with potassium chloride concentration of not less than 0.7 wt % and less than 0.75 wt %),–,–
"CC(=O)OC1=C(C)OC(C)C1=O (stereo not shown) [4-acetoxy-2,5-dimethyl-3(2H)-furanone]",–,–,–,decreased,–,decreased,+ (intensity of the same level as potassium chloride aqueous solution with potassium chloride concentration of not less than 0.75 wt % and less than 0.8 wt %),++ (intensity of the same level as potassium chloride aqueous solution with potassium chloride concentration of not less than 0.7 wt % and less than 0.75 wt %),+ (intensity of the same level as potassium chloride aqueous solution with potassium chloride concentration of not less than 0.75 wt % and less than 0.8 wt %),–,–,–,–,–,+ (intensity of the same level as potassium chloride aqueous solution with potassium chloride concentration of not less than 0.15 wt % and less than 0.2 wt %),–
"CC1=C(O)C(=O)C(C)O1 (stereo not shown) [4-hydroxy-2,5-dimethyl-3(2H)-furanone]",+ (intensity of the same level as potassium chloride aqueous solution with potassium chloride concentration of not less than 0.75 wt % and less than 0.8 wt %),+ (intensity of the same level as potassium chloride aqueous solution with potassium chloride concentration of not less than 0.75 wt % and less than 0.8 wt %),++ (intensity of the same level as potassium chloride aqueous solution with potassium chloride concentration of not less than 0.7 wt % and less than 0.75 wt %),decreased,–,–,++ (intensity of the same level as potassium chloride aqueous solution with potassium chloride concentration of not less than 0.7 wt % and less than 0.75 wt %),++ (intensity of the same level as potassium chloride aqueous solution with potassium chloride concentration of not less than 0.7 wt % and less than 0.75 wt %),–,–,++ (intensity of the same level as potassium chloride aqueous solution with potassium chloride concentration of not less than 0.7 wt % and less than 0.75 wt %),decreased,++ (intensity of the same level as potassium chloride aqueous solution with potassium chloride concentration of not less than 0.7 wt % and less than 0.75 wt %),++ (intensity of the same level as potassium chloride aqueous solution with potassium chloride concentration of not less than 0.7 wt % and less than 0.75 wt %),–,–
"CCCCCC(=O)O [hexanoic acid, reference compound]",–,–,–,did not show changes,–,–,–,–,–,− (intensity of the same level as potassium chloride aqueous solution with potassium chloride concentration of not less than 0.8 wt %),–,–,–,–,–,could not be confirmed
"CCCCC(=O)O [pentanoic acid, reference compound]",–,–,–,did not show changes,–,–,–,–,–,− (intensity of the same level as potassium chloride aqueous solution with potassium chloride concentration of not less than 0.8 wt %),–,–,–,–,–,could not be confirmed
